Patent US20240109903A1, “SUBSTITUTED HETEROCYCLES FOR TREATING CANCER” (Northwestern University, priority 2022, published 2024)

How the values were obtained:
SR = experiment: NCI 60 five-dose screen SR; assay type: cell-based, human; details: five-dose
A549/ATCC = experiment: NCI 60 five-dose screen A549/ATCC; assay type: cell-based; details: Homo sapiens, five-dose
HOP-62 = experiment: NCI 60 five-dose screen HOP-62; assay type: cell-based; details: Homo sapiens, five-dose
NCI-H23 = experiment: NCI 60 five-dose screen NCI-H23; assay type: cell-based; details: Homo sapiens, five-dose
COLO 205 = experiment: NCI 60 five-dose screen COLO 205; assay type: cell-based; details: Homo sapiens, five-dose
HCC-2998 = experiment: NCI 60 five-dose screen HCC-2998; assay type: cell-based; details: Homo sapiens, five-dose
HT29 = experiment: NCI 60 five-dose screen HT29; assay type: cell-based; details: Homo sapiens, HT-29, five-dose
SW-620 = experiment: NCI 60 five-dose screen SW-620; assay type: cell-based; details: Homo sapiens, five-dose
SF-539 = experiment: NCI 60 five-dose screen SF-539; assay type: cell-based; details: Homo sapiens, five-dose
SNB-19 = experiment: NCI 60 five-dose screen SNB-19; assay type: cell-based; details: Homo sapiens, five-dose
SNB-75 = experiment: NCI 60 five-dose screen SNB-75; assay type: cell-based; details: Homo sapiens, five-dose
U251 = experiment: NCI 60 five-dose screen U251; assay type: cell-based; details: Homo sapiens, U-251, five-dose
M14 = experiment: NCI 60 five-dose screen M14; assay type: cell-based; details: Homo sapiens, five-dose
SK-MEL-2 = experiment: NCI 60 five-dose screen SK-MEL-2; assay type: cell-based; details: Homo sapiens, five-dose
SK-MEL-28 = experiment: NCI 60 five-dose screen SK-MEL-28; assay type: cell-based; details: Homo sapiens, five-dose
SK-MEL-5 = experiment: NCI 60 five-dose screen SK-MEL-5; assay type: cell-based; details: Homo sapiens, five-dose
UACC-257 = experiment: NCI 60 five-dose screen UACC-257; assay type: cell-based; details: Homo sapiens, five-dose
UACC-62 = experiment: NCI 60 five-dose screen UACC-62; assay type: cell-based; details: Homo sapiens, five-dose
OVCAR-3 = experiment: NCI 60 five-dose screen OVCAR-3; assay type: cell-based; details: Homo sapiens, five-dose
OVCAR-4 = experiment: NCI 60 five-dose screen OVCAR-4; assay type: cell-based; details: Homo sapiens, five-dose
SK-OV-3 = experiment: NCI 60 five-dose screen SK-OV-3; assay type: cell-based; details: Homo sapiens, five-dose
A498 = experiment: NCI 60 five-dose screen A498; assay type: cell-based; details: Homo sapiens, five-dose
ACHN = experiment: NCI 60 five-dose screen ACHN; assay type: cell-based; details: Homo sapiens, five-dose
SN12C = experiment: NCI 60 five-dose screen SN12C; assay type: cell-based; details: Homo sapiens, five-dose
MDA-MB-231/ATCC = experiment: NCI 60 five-dose screen MDA-MB-231/ATCC; assay type: cell-based; details: Homo sapiens, five-dose
HS 578T = experiment: NCI 60 five-dose screen HS 578T; assay type: cell-based; details: Homo sapiens, five-dose
T-47D = experiment: NCI 60 five-dose screen T-47D; assay type: cell-based; details: Homo sapiens, T47D, five-dose
MDA-MB-468 = experiment: NCI 60 five-dose screen MDA-MB-468; assay type: cell-based; details: Homo sapiens, five-dose
[1] = read-out: LC50 (the source's name) (converted)
[2] = read-out: LC50 (the source's name)

OC1CCC(Cn2c(C(F)(F)F)cc3c(Cl)ncnc32)CC1 (stereo not shown) [NUCC-0226689]
GI50 (SR; Homo sapiens): 2.14 µM | IC50 (SR; Homo sapiens): 3.55 µM | CC50 (SR; Homo sapiens, read-out: LC50 (the source's name)): ≥ 100 µM | TGI (SR): 5.17 −log[M] | GI50 (A549/ATCC): 30.9 µM | IC50 (A549/ATCC): 43.7 µM | IC (TGI) (A549/ATCC): 100 µM | CC50 (A549/ATCC; [1]): ≥ 100 µM | GI50 (HOP-62): 20 µM | IC50 (HOP-62): 42.7 µM | IC (TGI) (HOP-62): 57.5 µM | CC50 (HOP-62; [1]): ≥ 100 µM | GI50 (NCI-H23): 3.09 µM | IC50 (NCI-H23): 5.5 µM | IC (TGI) (NCI-H23): 11.5 µM | CC50 (NCI-H23; [1]): 45.7 µM | GI50 (COLO 205): 24.5 µM | IC50 (COLO 205): 45.7 µM | IC (TGI) (COLO 205): 100 µM | CC50 (COLO 205; [1]): ≥ 100 µM | GI50 (HCC-2998): 1.78 µM | IC50 (HCC-2998): 3.24 µM | IC (TGI) (HCC-2998): 3.31 µM | CC50 (HCC-2998; [1]): 6.17 µM | GI50 (HT29): 15.5 µM | IC50 (HT29): 21.9 µM | IC (TGI) (HT29): 100 µM | CC50 (HT29; [1]): ≥ 100 µM | GI50 (SW-620): 12.3 µM | IC50 (SW-620): 17 µM | IC (TGI) (SW-620): 38.9 µM | CC50 (SW-620; [1]): ≥ 100 µM | GI50 (SF-539): 17.8 µM | IC50 (SF-539): 32.4 µM | IC (TGI) (SF-539): 38.9 µM | CC50 (SF-539; [1]): 85.1 µM | GI50 (SNB-19): 13.5 µM | IC50 (SNB-19): 24 µM | IC (TGI) (SNB-19): 26.9 µM | CC50 (SNB-19; [1]): 53.7 µM | GI50 (SNB-75): 10.7 µM | IC50 (SNB-75): 23.4 µM | IC (TGI) (SNB-75): 22.9 µM | CC50 (SNB-75; [1]): 49 µM | GI50 (U251): 3.24 µM | IC50 (U251): 4.27 µM | IC (TGI) (U251): 12.9 µM | CC50 (U251; [1]): 44.7 µM | GI50 (M14): 4.9 µM | IC50 (M14): 8.71 µM | IC (TGI) (M14): 26.9 µM | CC50 (M14; [1]): ≥ 100 µM | GI50 (SK-MEL-2): 13.2 µM | IC50 (SK-MEL-2): 28.8 µM | IC (TGI) (SK-MEL-2): 28.2 µM | CC50 (SK-MEL-2; [1]): 58.9 µM | GI50 (SK-MEL-28): 9.33 µM | IC50 (SK-MEL-28): 19.1 µM | IC (TGI) (SK-MEL-28): 30.9 µM | CC50 (SK-MEL-28; [1]): ≥ 100 µM | GI50 (SK-MEL-5): 4.79 µM | IC50 (SK-MEL-5): 8.32 µM | IC (TGI) (SK-MEL-5): 16.6 µM | CC50 (SK-MEL-5; [1]): 42.7 µM | GI50 (UACC-257): 3.39 µM | IC50 (UACC-257): 7.76 µM | IC (TGI) (UACC-257): 14.1 µM | CC50 (UACC-257; [1]): 56.2 µM | GI50 (UACC-62): 5.37 µM | IC50 (UACC-62): 11.5 µM | IC (TGI) (UACC-62): 19.5 µM | CC50 (UACC-62; [1]): 51.3 µM | GI50 (OVCAR-3): 8.13 µM | IC50 (OVCAR-3): 19.1 µM | IC (TGI) (OVCAR-3): 28.8 µM | CC50 (OVCAR-3; [1]): 97.7 µM | GI50 (OVCAR-4): 17.8 µM | IC50 (OVCAR-4): 37.2 µM | IC (TGI) (OVCAR-4): 46.8 µM | CC50 (OVCAR-4; [1]): ≥ 100 µM | GI50 (SK-OV-3): 22.4 µM | IC50 (SK-OV-3): 67.6 µM | IC (TGI) (SK-OV-3): 100 µM | CC50 (SK-OV-3; [1]): ≥ 100 µM | GI50 (A498): 100 µM | IC50 (A498): 100 µM | IC (TGI) (A498): 100 µM | CC50 (A498; [1]): ≥ 100 µM | GI50 (ACHN): 8.71 µM | IC50 (ACHN): 15.5 µM | IC (TGI) (ACHN): 50.1 µM | CC50 (ACHN; [1]): ≥ 100 µM | GI50 (SN12C): 5.37 µM | IC50 (SN12C): 10 µM | IC (TGI) (SN12C): 20 µM | CC50 (SN12C; [1]): 53.7 µM | GI50 (MDA-MB-231/ATCC): 4.47 µM | IC50 (MDA-MB-231/ATCC): 11 µM | IC (TGI) (MDA-MB-231/ATCC): 20 µM | CC50 (MDA-MB-231/ATCC; [1]): 69.2 µM | GI50 (HS 578T): 13.8 µM | IC50 (HS 578T): 93.3 µM | IC (TGI) (HS 578T): 53.7 µM | CC50 (HS 578T; [2]): ≥ 100 µM | GI50 (T-47D): 26.3 µM | IC50 (T-47D): 91.2 µM | IC (TGI) (T-47D): 100 µM | CC50 (T-47D; [2]): ≥ 100 µM | GI50 (MDA-MB-468): 2.14 µM | IC50 (MDA-MB-468): 7.08 µM | IC (TGI) (MDA-MB-468): 5.62 µM | CC50 (MDA-MB-468; [1]): 22.4 µM
